Source: publication PMC3111596 (Biochemistry, 2011)

Target: N-terminal truncated LSD1 (171–852 aa) (Homo sapiens, UniProt O60341)
Test: LSD1-folate binding by back-scattering interferometry
Conditions: N-terminal truncated LSD1 vs full-size LSD1

Affinity of truncated LSD1 compared with full-size protein: same affinity as the full-size protein
SMILES: Nc1nc2c(c(=O)[nH]1)NC(CNc1ccc(C(=O)N[C@@H](CCC(=O)N[C@@H](CCC(=O)N[C@@H](CCC(=O)N[C@@H](CCC(=O)N[C@@H](CCC(=O)O)C(=O)O)C(=O)O)C(=O)O)C(=O)O)C(=O)O)cc1)CN2 (mixture of isomers) [(6R,S)-THF-Glu5, Tetrahydrofolate pentaglutamate]
